Results published in US20170044492A1, “CONVERSION OF SOMATIC CELLS INTO NOCICEPTORS, AND METHODS OF USE THEREOF” (CHILDERN'S MEDICAL CENTER CORPORATION, priority 2013, published 2017).
Several values for one entry are separate records, joined by “and”; a condition that tells them apart may be missing. Equal values may be shown once. Read-outs that look alike come from different tables or passages of the source.

Columns and labels:
[1] = tested on: tdTomato-positive induced nociceptors; test: Calcium imaging of tdTomato-positive induced nociceptors with Trp channel agonists; assay type: cell-based, mouse
induced neurons = test: Extracellular multi-electrode array recording of induced neurons after agonist application; assay type: cell-based, mouse
[2] = tested on: tdTomato-positive primary DRG neurons; test: Calcium imaging of tdTomato-positive primary DRG neurons with Trp channel agonists; assay type: cell-based, mouse
induced nociceptors [3] = assay type: cell-based, mouse
[4] = tested on: tdTomato-positive induced neurons; test: Whole-cell patch clamp of induced nociceptors; assay type: cell-based, mouse
[5] = biological target: T1, P2X3 subtype of ionotropic purinergic receptors (Mus musculus, UniProt Q3UR32); test: Whole-cell patch clamp of P2X3 currents in induced nociceptors; assay type: cell-based; settings: 30 μM
T1 construct: Whole-cell patch recordings were performed on induced tdTomato-positive nociceptors, derived from TrpV1-Cre^+/−::tdTomato^+/− MEFs; endogenous in cells; host or cells: tdTomato-positive induced nociceptors reprogrammed from TrpV1-Cre+/-::tdTomato+/- mouse embryonic fibroblasts
T1 sequence (Q3UR32 1-397): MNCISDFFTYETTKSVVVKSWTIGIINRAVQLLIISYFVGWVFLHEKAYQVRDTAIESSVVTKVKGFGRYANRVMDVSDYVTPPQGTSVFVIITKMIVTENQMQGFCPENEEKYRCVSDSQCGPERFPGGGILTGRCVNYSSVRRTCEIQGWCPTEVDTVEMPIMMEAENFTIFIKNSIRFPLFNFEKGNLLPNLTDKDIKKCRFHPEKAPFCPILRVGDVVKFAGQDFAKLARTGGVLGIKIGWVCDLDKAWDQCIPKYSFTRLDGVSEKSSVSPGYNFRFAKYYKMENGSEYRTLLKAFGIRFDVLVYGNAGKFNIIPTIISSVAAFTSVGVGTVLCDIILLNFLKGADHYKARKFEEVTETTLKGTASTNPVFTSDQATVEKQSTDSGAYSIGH

TrpV1 receptor = biological target: T2, TrpV1 receptor (Mus musculus, UniProt Q704Y3); test: PGE2 sensitization of the capsaicin response, calcium imaging of induced nociceptors; assay type: cell-based
T2 construct: endogenous in cells; host or cells: tdTomato-positive induced nociceptors reprogrammed from TrpV1-Cre+/-::tdTomato+/- mouse embryonic fibroblasts
T2 sequence (Q704Y3 whole entry): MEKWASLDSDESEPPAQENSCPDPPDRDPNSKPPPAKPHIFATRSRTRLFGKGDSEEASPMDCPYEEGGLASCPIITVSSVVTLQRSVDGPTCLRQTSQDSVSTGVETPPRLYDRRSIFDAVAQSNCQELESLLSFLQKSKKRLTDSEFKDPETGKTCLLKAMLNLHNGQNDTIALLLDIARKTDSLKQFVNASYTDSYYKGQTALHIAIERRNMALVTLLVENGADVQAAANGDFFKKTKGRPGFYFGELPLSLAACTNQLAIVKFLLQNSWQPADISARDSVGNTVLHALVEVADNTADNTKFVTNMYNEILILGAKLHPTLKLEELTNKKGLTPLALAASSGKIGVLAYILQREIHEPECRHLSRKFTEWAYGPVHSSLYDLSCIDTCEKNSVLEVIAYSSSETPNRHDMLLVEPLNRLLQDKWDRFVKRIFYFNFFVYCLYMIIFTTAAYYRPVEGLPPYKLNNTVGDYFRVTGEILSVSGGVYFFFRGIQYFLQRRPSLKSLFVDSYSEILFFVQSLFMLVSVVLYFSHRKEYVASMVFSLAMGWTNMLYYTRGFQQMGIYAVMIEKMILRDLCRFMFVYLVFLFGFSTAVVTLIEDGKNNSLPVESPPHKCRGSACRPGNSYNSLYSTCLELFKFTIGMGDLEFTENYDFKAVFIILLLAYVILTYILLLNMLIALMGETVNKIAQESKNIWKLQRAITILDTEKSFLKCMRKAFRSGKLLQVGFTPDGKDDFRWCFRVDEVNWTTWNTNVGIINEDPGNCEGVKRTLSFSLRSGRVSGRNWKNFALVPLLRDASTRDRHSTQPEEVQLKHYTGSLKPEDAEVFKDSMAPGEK

[6] = tested on: KCl-responding neurons derived from the BAM factors; test: Calcium imaging of neurons derived from the BAM factors alone; assay type: cell-based, mouse
induced nociceptors [7] = assay type: cell-based, mouse; remark: listed apart in the source
primary DRGs = assay type: cell-based, mouse
BAM-derived neurons = assay type: cell-based, mouse
induced human neurons = test: Whole-cell patch clamp of induced human neurons; assay type: cell-based
[8] = induced nociceptors, capsaicin 1 μM, mustard oil 100 μM, menthol 250 μM, n=227 tdTomato-positive cells that responded to KCl
[9] = adult TrpV1::tdTomato mice, same procedure, n=249 tdTomato-positive cells that responded to KCl

C=CCN=C=S [mustard oil]
tdTomato-positive cells that responded to agonist [1]: 9% | arrays with robust action potential firing after agonist application (arrays/total) (induced neurons): 3/3 | tdTomato-positive primary DRG neurons that responded to agonist [2]: 2.5%

O=C1[O][Pt]2([NH][C@@H]3CCCC[C@H]3[NH]2)[O]C1=O [oxaliplatin]
sensitization of capsaicin response (spikes) (induced nociceptors [3]): marked sensitization

ZD7288
neurons with ZD7288-sensitive HCN currents (neurons/total) [4]: 2/2

Nc1ncnc2c1ncn2[C@@H]1O[C@H](COP(=O)(O)CP(=O)(O)OP(=O)(O)O)[C@@H](O)[C@H]1O [α, β-methylene-ATP]
neurons with rapidly-adapting inward currents elicited by agonist (neurons/total) [5]: 8/16

COc1cc(CNC(=O)CCCC/C=C/C(C)C)ccc1O [capsaicin]
neurons with inward currents elicited by capsaicin (neurons/total) ([4]; 1 μM capsaicin, voltage clamp, holding −80 mV): 6/11 | tdTomato-positive cells that responded to agonist [1, 8]: 39% | mean change in fluorescence absorption ratio, initial capsaicin response (TrpV1 receptor; 300 nM capsaicin, before PGE2): 0.028±3.0*10^−3 | KCl-responding neurons that responded to capsaicin (responders/total) [6]: 0/50 | arrays with robust action potential firing after agonist application (arrays/total) (induced neurons; capsaicin 1 μM, mustard oil 100 μM): 3/3 | tdTomato-positive primary DRG neurons that responded to agonist [2, 9]: 36%

CCCCC[C@H](O)/C=C/[C@H]1[C@H](O)CC(=O)[C@@H]1C/C=C\CCCC(=O)O [PGE2, Prostaglandin E2]
mean change in fluorescence absorption ratio, PGE2-sensitized capsaicin response (TrpV1 receptor; second 300 nM capsaicin application after 1 μM PGE2 for two minutes, n=41): 0.18±6.0*10^−3

[Cl-].[K+] [KCl, potassium chloride]
CGRP released, mean (s.e.m.) (induced nociceptors [7]): 390.4 (52.5) pg ml-1 | CGRP release from primary DRGs (primary DRGs): dose-dependent increase in CGRP release | CGRP released, mean (s.e.m.) (BAM-derived neurons): 10.3 (2.6) pg ml-1

CC1CCC(C(C)C)C(O)C1 (stereo not drawn) [menthol]
tdTomato-positive cells that responded to agonist [1, 8]: 3% | tdTomato-positive primary DRG neurons that responded to agonist [2, 9]: 2.5%

NC1=N[C@H](O)[C@H]2[C@H]3O[C@]4(O)O[C@@H]([C@@H](O)[C@@]2(N1)[C@@H]4O)[C@]3(O)CO [TTX, tetrodotoxin]
induced neurons firing single TTX-resistant action potentials overshooting 0 mV (neurons/total) [4]: 8/16 and 7/12 | induced neurons with TTX-resistant sodium currents greater than 50 pA (neurons/total) [4]: 14/15 | neurons with TTX-resistant sodium currents (neurons/total) (induced human neurons): 10/10
